Read-outs that look alike come from different tables or passages of the source.

In experiment [1] the test system is S. aureus ATCC51650 and CIs (CI2, CI3, CI4, CI6, CI7, CI8, CI9, and CI11). It is filed as cell-based, Staphylococcus aureus. As to the method:
(§1) Initial screening was performed in 100 μl in 96 well plates, with follow up experiments in 10 mL culture volume. S. aureus strains were grown on 1.5% Tryptone Soya Agar (TSA) at 37° C. overnight. Single colonies were transferred to Tryptone Soya Broth (TSB) to generate a culture with a starting concentration of 5×10^5 CFU/ml. […] Antibiotics were added to the cultures at ½ MIC (according to the pretest MIC of antibiotics) if required. Optical density (OD) readings at 600 nm were recorded at 24 hours to assess the growth of bacteria co-inoculated with phage unless otherwise specified. Uninoculated, fresh media was included as a sterility control.
A synergistic effect was defined as a statistically significant decrease in optical density (OD) that was larger than the combined decrease in OD of antibiotic and phage only controls.

The subject of experiment [2] is S. aureus CI3. Kind of experiment: Antibiotic sensitivity of the isolate selected for in vivo experiments. It is filed as cell-based, Staphylococcus aureus. As to the method: (§2) The minimum inhibitory concentration (MIC) of amoxicillin, vancomycin, erythromycin, clindamycin and azithromycin against the S. aureus strains was assessed using the broth microdilution technique as previously described (Wiegand I et al., Nature protocols 3 (2): 163-175, 2008) and breakpoints defined according to CSLI guidelines. Clinical strains resistant to at least one antibiotic in three or more antibiotic categories were defined as multidrug resistant (MDR).
A fresh culture of CI3 on 1.5% TSA plates was prepared two days before inoculation. A single colony was resuspended in 0.9% saline (ca. 2 ml) to turbidity reading 0.5 McFarland Units and then a 1 in 100 dilution in TSB was cultured overnight one day before the in vivo experiment. CI3 pellets were harvested and resuspended in fresh TSB to reach 2.5×10^9 Colony Forming Units (CFU)/ml.

Experiment [3] concerns S. aureus isolates (15 clinical isolates and 2 ATCC strains). Briefly: Antibiotic sensitivity testing, 17 isolates. It is filed as cell-based, Staphylococcus aureus. As to conditions: of 17 S. aureus isolates. As to the method: S. aureus ATCC51650 and ATCC25923 were obtained from the American Type Culture Collection (Manassas, VA, United States of America) and used as reference strains. In addition, a total of 15 S. aureus clinical isolates (CIs) were isolated from the sinonasal cavities of chronic sinusitis (CRS) patients. In each case, S. aureus was cultured by an independent diagnostic laboratory and the antibiotic susceptibility determined by disc diffusion on Mueller-Hinton agar per Clinical and Laboratory Standards Institute (CLSI) recommendations (Adelaide Pathology Partners, Mile End, SA, Australia). Bacteria were isolated on Columbian horse blood agar plates, colistin nalidixic acid plates, or cystine lactose electrolyte-deficient plates (Oxoid Australia Pty Ltd, Thebarton, SA, Australia). Positive cultures were confirmed to be S. aureus using latex agglutination testing.
as §2

Experiment [4] concerns S. aureus CI3. Kind of experiment: Rat rhinosinusitis model, efficacy arm (sinus mucosa CFU, biofilm biomass, histopathology). It is filed as in vivo, Sprague Dawley rats. The source says: Rat nasal tissues were fixed in 10% neutral buffered formalin. Tissue samples were then decalcified using 9.5% nitric acid in 1% ethylenediaminetetracetic acid (EDTA), processed to paraffin wax, and 6 μm sections cut and stained with H&E. The samples were examined by a veterinary pathologist blinded to the treatments given.
An established murine rhinosinusitis model was used with modifications (see YU C-j et al., Chinese Journal of Otorhinolaryngology-Skull Base Surgery 6, 2011; Zhang F et al., Am J Rhinol Allergy 27 (5): 361-366, 2013; and Jin M et al., Ear Arch Oto-Rhino-L 268 (6): 857-861, 2011). […] The sponges were placed at approximately 15 mm from the anterior nostril, located in the ostiomeatal complex. The rats were monitored for a nine-day period to allow for mucosal biofilms to form, and, on the tenth day, the sponges were removed. A two-day recovery was given to the rat before treatments begun. […] Treatments were administered intranasally twice a day for 14 days. Rats were monitored for weight and respiratory alterations (respiration rate; nasal discharge, hyperaemia or pruritus; and sneezing) during treatment, and, 14 days post-treatment initiation, the rats were humanely sacrificed. Their sinus mucosa was harvested for CFU counting, biofilm quantification, histopathology, and phage enumeration. […]
The quantification of biofilm biomass on sinus mucosa was determined using an established protocol (Singhal D et al., editors. Quantitative analysis of in vivo mucosal bacterial biofilms. International Forum of Allergy & Rhinology; 2012: Wiley Online Library (27). Briefly, the frontal sinus mucosa was harvested and placed into Dulbecco's Modified Eagle's Medium (Life Technologies, Carlsbad, CA, United States of America) on ice. One piece of mucosa from each frontal sinus was stained with a LIVE/DEAD® BacLight Bacterial Viability Kit (Life Technologies Australia). The stained mucosa was then examined at 20× magnification using a confocal laser scanning microscope (Zeiss LSM700, Carl Zeiss AG, Oberkochen, Germany). […]

In experiment [5] the test system is S. aureus CI3. Briefly: Phage combined with ½ MIC antibiotics on planktonic S. aureus (OD600), CI3. It is filed as cell-based, Staphylococcus aureus. The following applies: ½ MIC antibiotic, phage MOI=0.2, 24 hours. As to the method:
as §1

As to `CC1(C)S[C@@H]2[C@H](NC(=O)[C@H](N)c3ccc(O)cc3)C(=O)N2[C@H]1C(=O)O` [amoxicillin], the “additive or synergistic effect of the antibiotic combined with phage” value in experiment [1] (½ MIC antibiotic with J-Sa36, Sa83 or Sa87 (MOI=0.2)) is “None of the combinations of phage with either of the cell wall actives (amoxicillin and vancomycin) showed any significant additive or synergistic effects”.
As to `CC[C@H]1OC(=O)[C@H](C)[C@@H](O[C@H]2C[C@@](C)(OC)[C@@H](O)[C@H](C)O2)[C@H](C)[C@@H](O[C@@H]2O[C@H](C)C[C@H](N(C)C)[C@H]2O)[C@](C)(O)C[C@@H](C)CN(C)[C@H](C)[C@@H](O)[C@]1(C)O` [azithromycin], in the experiment on S. aureus CI3 [2], the “antibiotic sensitivity of the isolate” value is “sensitive”. Also, the “isolates exhibiting resistance to the antibiotic” value in experiment [3] was “two”. Moreover, the “biofilm biomass on sinus mucosa compared to control, single agent” value in the experiment with S. aureus CI3 [4] (0.5×10^10 PFU/ml Sa87 or ½ MIC antibiotic alone) is recorded as “significant increase in biomass”. In addition, the “histopathology of the maxilloturbinates, single agent” value in the experiment on S. aureus CI3 [4] (Sa87, ½ MIC clindamycin or ½ MIC azithromycin only) is “evidence of cilial denudation and surface epithelial erosion”. Besides, the “synergistic effects with phage J-Sa36, Sa83 and Sa87 on bacterial viability (OD600)” value in the experiment on S. aureus CI3 [5] is reported as “synergistic effects”.
In the case of `CC[C@H]1OC(=O)[C@H](C)[C@@H](O[C@H]2C[C@@](C)(OC)[C@@H](O)[C@H](C)O2)[C@H](C)[C@@H](O[C@@H]2O[C@H](C)C[C@H](N(C)C)[C@H]2O)[C@](C)(O)C[C@@H](C)C(=O)[C@H](C)[C@@H](O)[C@]1(C)O` [erythromycin], the “isolates exhibiting resistance to the antibiotic” value in experiment [3] is given as “three”. For the same compound, the “synergistic effects with phage J-Sa36, Sa83 and Sa87 on bacterial viability (OD600)” value with S. aureus CI3 [5] is on record as “synergistic effects”.
Regarding `CN[C@H](CC(C)C)C(=O)N[C@H]1C(=O)N[C@@H](CC(N)=O)C(=O)N[C@H]2C(=O)N[C@H]3C(=O)N[C@H](C(=O)N[C@H](C(=O)O)c4cc(O)cc(O)c4-c4cc3ccc4O)[C@H](O)c3ccc(c(Cl)c3)Oc3cc2cc(c3O[C@@H]2O[C@H](CO)[C@@H](O)[C@H](O)[C@H]2O[C@H]2C[C@](C)(N)[C@H](O)[C@H](C)O2)Oc2ccc(cc2Cl)[C@H]1O` [vancomycin], in experiment [1], the “additive or synergistic effect of the antibiotic combined with phage” value is “None of the combinations of phage with either of the cell wall actives (amoxicillin and vancomycin) showed any significant additive or synergistic effects”.

Source of the values: US20260286316A1, “METHOD OF PRODUCTION OF MODIFIED PHAGE AND METHOD OF TREATMENT USING SAME” (priority 2022, published 2026).
